Measured values taken from paper PMC9744894, “An optimized antimicrobial peptide analog acts as an antibiotic adjuvant to reverse methicillin-resistant Staphylococcus aureus” (NPJ Science of Food, 2022).
Converted amounts (≈) assume the structure as drawn. Read-outs that look alike come from different tables or passages of the source. No end group written: not given here.

Assays:
[1] = tested on: methicillin-resistant Staphylococcus aureus ATCC 43300; assay: microbe, parasite or virus in culture; conditions: ATCC43300 / MRSA, 18 h
MRSA (ATCC 43300) [2] = assay: Killing kinetics / growth inhibition; format: cell-based, Staphylococcus aureus; conditions: PIS-A-1 1/4 MIC or APC 1/8 MIC alone; OD600, 37 °C
Procedure: Likewise, the killing kinetics of antimicrobial agents against bacteria was tested. Briefly, 100 μL of antimicrobial agents were diluted two-fold in 96-well plates. Then, 100 μL of bacterial inoculum (1.5 × 10^6 CFU mL^−1) was appended and incubated at 37 °C. At a fixed time, the OD600 value of each well in the plate was measured by using a microplate reader (SpectraMax i3, Molecular Devices, USA).

[3] = tested on: Shigalla Dysenteria CMCC 51252; conditions: CMCC 51252, 18 h
[4] = tested on: Shigella sonnei CMCC 51592; conditions: MHB, 37 °C, 18 h
Procedure: (§1) The minimum inhibitory concentration (MIC) was adopted to measure the antimicrobial spectrum of AMPs[42]. Specifically, experiments were executed by broth microdilution method in a 96-well plate (Corning) with an initial inoculum of 1.5 × 10^6 Colony-Forming units (CFU) mL^−1 in MHB based on Clinical and Laboratory Standards Institute (CLSI) guidelines. Inoculums were bacteria in the Mid-Logarithmic phase. To prevent edge effects, 96-well plates were placed in a constant temperature incubator (TSQ-280, Jianuo, China) at 37 °C. After 18 h of incubation, a microplate reader (SpectraMax i3, Molecular Devices, USA) was applied to determine the OD600 value of the plates. […] Simultaneously, the number of inactivated bacteria treated with different drugs was quantitatively determined by flow cytometry (BD Accuri C6 Plus, USA) combined with […] propidium iodide (PI, Thermo Fisher Scientific, USA)[43].

[5] = tested on: Salmonella enterica CMCC 50335; conditions: MHB, 37 °C, 18 h
Procedure: as §1

[6] = tested on: Shigella flexneri CMCC 51572; conditions: MHB, 37 °C, 18 h
Procedure: as §1

[7] = tested on: Shigella flexneri CMCC 51571; conditions: MHB, 37 °C, 18 h
Procedure: as §1

[8] = tested on: Escherichia coli ATCC 8739
[9] = tested on: Bacillus cereus CMCC 63301
[10] = tested on: Staphylococcus aureus ATCC 29213
[11] = tested on: Escherichia coli CMCC 44817
[12] = tested on: Staphylococcus aureus CMCC 26003
[13] = tested on: Escherichia coli CMCC44102
MRSA (ATCC 43300) [14] = conditions: chessboard with APC, MRSA ATCC 43300, 18 h; synergy defined as FIC index ≤ 0.5
[15] = tested on: Bacillus pumilus CMCC 63202
[16] = tested on: Staphylococcus aureus ATCC 6538
[17] = tested on: methicillin-resistant Staphylococcus aureus ATCC 43300
[18] = tested on: Staphylococcus aureus ATCC 12600
Caco-2 cells = assay: Cytotoxicity, MTT assay; conditions: Caco-2, MTT; 64 μg/mL (concentration for PIS-1 and PIS-3 implied by context); mean ± SD, n = 3
Procedure: Caco-2 cells cultured with RPMI 1640 medium (containing 10% FBS and 1% penicillin-streptomycin) were incubated in a humidified CO2 (5%) atmosphere. Next, trypsin-treated cells (0.25%) were seeded in 96-well plates at a density of 5,000 per well and incubated for 24 h. Finally, cell viability of each well with fresh medium was tested by MTT assay.

[19] = tested on: pepsin, papain, and trypsin; format: in vitro ADME; conditions: pH 7.4
Procedure: AMPs were exposed to proteases (including pepsin, papain, and trypsin) dissolved in PBS (pH 7.4) at 37 °C for 12 h. Subsequently, proteases in AMPs were inactivated by high-temperature treatment (95 °C, 5 min) and the activity of treated AMPs against MRSA (ATCC 43300) was determined. AMPs dissolved in PBS without proteases were used as controls.

mouse blood cells = format: cell-based, mice
Procedure: Blood cells taken from mice (ICR, male, 30–35 g) were treated with different concentrations of AMPs for 1 h. Meanwhile, Triton X-100 (0.2%) and phosphate-buffered saline (PBS, 0.01 moL^−1, pH 7.4) were used as positive and negative controls, respectively. After the reaction was completed, the OD576 value of each tube sample was determined and the hemolysis rate was calculated using the formula below[44],[45]:1 Hemolysisrate(%)=[(OD576sample−OD576blank)/(OD576TritonX−100−OD576blank)]×100%

## CC1(C)S[C@@H]2[C@H](NC(=O)[C@H](N)c3ccccc3)C(=O)N2[C@H]1C(=O)O [APC, Ampicillin]
[1]
  MIC: 16 µg/mL (≈ 45.8 µM)
MRSA (ATCC 43300) [2]
  bactericidal activity in growth inhibition experiment, applied separately: no bactericidal activity

## CN[C@H](CC(C)C)C(=O)N[C@H]1C(=O)N[C@@H](CC(N)=O)C(=O)N[C@H]2C(=O)N[C@H]3C(=O)N[C@H](C(=O)N[C@H](C(=O)O)c4cc(O)cc(O)c4-c4cc3ccc4O)[C@H](O)c3ccc(c(Cl)c3)Oc3cc2cc(c3O[C@@H]2O[C@H](CO)[C@@H](O)[C@H](O)[C@H]2O[C@H]2C[C@](C)(N)[C@H](O)[C@H](C)O2)Oc2ccc(cc2Cl)[C@H]1O [VAN, vancomycin]
[1]
  MIC: 0.25 µg/mL (≈ 0.173 µM)

## FFHHIFRGIVHVGKTIHRLVTG [PIS-1] [listing 1 of 2 here]
Staphylococcus aureus; range over Staphylococcus aureus strains
  MIC against Staphylococcus aureus: 8~16 μg/mL
MRSA N315; MRSA N315, MHB, 37 °C, 18 h
  MIC: 8 µg/mL
[3]
  MIC: 16 µg/mL
[4]
  MIC: 8 µg/mL
[5]
  MIC: 16 µg/mL
[6]
  MIC: 8 µg/mL
[7]
  MIC: 8 µg/mL
[8]; Escherichia coli ATCC 8739, first listing in Supplementary table 1, MHB, 37 °C, 18 h
  MIC: 8 µg/mL
[8]; Escherichia coli ATCC 8739, second listing in Supplementary table 1, MHB, 37 °C, 18 h
  MIC: 8 µg/mL
[9]; Bacillus cereus CMCC 63301, MHB, 37 °C, 18 h
  MIC: 16 µg/mL
[10]; Staphylococcus aureus ATCC 29213, MHB, 37 °C, 18 h
  MIC: 8 µg/mL
[11]; Escherichia coli CMCC 44817, MHB, 37 °C, 18 h
  MIC: 16 µg/mL
[12]; Staphylococcus aureus CMCC 26003, MHB, 37 °C, 18 h
  MIC: 16 µg/mL
[13]; Escherichia coli CMCC44102, first listing in Supplementary table 1, MHB, 37 °C, 18 h
  MIC: 16 µg/mL
[13]; Escherichia coli CMCC 44102, second listing in Supplementary table 1, MHB, 37 °C, 18 h
  MIC: 4 µg/mL
MRSA (ATCC 43300) [14]
  FIC (FIC index) with APC: 0.31
[15]; Bacillus pumilus CMCC 63202, MHB, 37 °C, 18 h
  MIC: 16 µg/mL
[16]; Staphylococcus aureus ATCC 6538, MHB, 37 °C, 18 h
  MIC: 8 µg/mL
[17]; MRSA ATCC 43300, broth microdilution in MHB, 1.5 × 10^6 CFU mL^−1, 37 °C, 18 h, OD600
  MIC: 16 µg/mL
[18]; Staphylococcus aureus ATCC 12600, MHB, 37 °C, 18 h
  MIC: 8 µg/mL

## FFHHIFRGIVHVGKTIHRLVTG [PIS-1] [listing 2 of 2 here]
Caco-2 cells
  cell viability: 3.64 ± 0.79%

## FIHHIFRGIVHAG [PIS-A-5]
[17]; ATCC 43300, 18 h
  MIC: ≥64 µg/mL

## FIHHIFRGIVHAGRSIGRFLTG [PIS-3]
MRSA N315; N315, 18 h
  MIC: 16 µg/mL
[3]
  MIC: 32 µg/mL
[8]; ATCC 8739, 18 h
  MIC: 8 µg/mL
[9]; CMCC 63301, 18 h
  MIC: 16 µg/mL
[10]; ATCC 29213, 18 h
  MIC: 16 µg/mL
[11]; CMCC 44817, 18 h
  MIC: 16 µg/mL
[12]; CMCC 26003, 18 h
  MIC: 32 µg/mL
[13]; CMCC44102, 18 h
  MIC: 16 µg/mL
[15]; CMCC 63202, 18 h
  MIC: 16 µg/mL
[16]; ATCC 6538, 18 h
  MIC: 16 µg/mL
[17]; ATCC 43300, 18 h
  MIC: 32 µg/mL
[18]; ATCC 12600, 18 h
  MIC: 16 µg/mL

## FIHHIFRGIVHLGRSIGRFLTG [PIS-A-2]
[17]; ATCC 43300, 18 h
  MIC: 16 µg/mL

## FIHHIFRGIVHVGRS [PIS-A-4]
[17]; ATCC 43300, 18 h
  MIC: 32 µg/mL

## FIHHIFRGIVHVGRSIG [PIS-A-3]
[17]; ATCC 43300, 18 h
  MIC: 32 µg/mL

## FIHHIFRGIVHVGRSIGRFLTG [PIS-A-1]
Staphylococcus aureus; 18 h
  MIC against Staphylococcus aureus: 8~16 μg/mL
MRSA N315; N315, 18 h
  MIC: 8 µg/mL
[3]
  MIC: 16 µg/mL
[4]
  MIC: 16 µg/mL
[5]
  MIC: 16 µg/mL
[6]
  MIC: 16 µg/mL
[7]
  MIC: 8 µg/mL
[8]; ATCC 8739, 18 h
  MIC: 8 µg/mL
[9]; CMCC 63301, 18 h
  MIC: 8 µg/mL
[10]; ATCC 29213, 18 h
  MIC: 8 µg/mL
[19]
  resistance to enzymatic degradation (change of MIC against MRSA after protease treatment): least affected by enzymatic degradation
[11]; CMCC 44817, 18 h
  MIC: 16 µg/mL
[12]; CMCC 26003, 18 h
  MIC: 16 µg/mL
MRSA (ATCC 43300) [14]
  FIC (FIC index) with APC: 0.19
[15]; CMCC 63202, 18 h
  MIC: 16 µg/mL
Mouse blood cells
  hemolysis at its MIC: did not induce minimal hemolysis
Mouse blood cells; red cells of mouse, 1 h
  HC50 (minimum AMP concentration producing 50% hemolysis of red blood cells): 64 µg/mL
[16]; ATCC 6538, 18 h
  MIC: 8 µg/mL
[17]; ATCC 43300, 18 h
  MIC: 8 µg/mL
[18]; ATCC 12600, 18 h
  MIC: 8 µg/mL

## GIVHAG [PIS-A-6]
[17]; ATCC 43300, 18 h
  MIC: ≥64 µg/mL

## GIVHAGRSIGRFLTG [PIS-A-7]
[17]; ATCC 43300, 18 h
  MIC: ≥64 µg/mL
